Here are results for 8 compounds from patent US6787551B2, “Thiazolidinedione derivatives and pharmaceutical composition comprising the same” (Chong Kun Dang Pharmaceutical Corporation, priority 2002, dated 2004).

Where two headings read alike, the source gives them in different places.

Data set [1] relates to differentiated 3T3-L1 cell. The data set can be described thus: 2-Deoxy-D-[2,6-3H] glucose uptake assay. It is filed as cell-based. The note with it: differentiated 3T3-L1 cells, 24 h with compound, 0.5 nM insulin, concentration giving 50% of maximum enhancement of insulin activation, read-out: 2-deoxyglucose uptake (EC50 nM). The procedure: 1) 2-Deoxy-D-[2,6-3H] glucose uptake assay (in differentiated 3T3-L1 cell)
Undifferentiated adipocyte 3T3-L1 cells were inoculated in a 24-well plate and cultivated in a CO2 incubator at 37° C. To induce differentiation of the undifferentiated adipocytes, the cells were then incubated in a differentiation medium. After adding a certain concentration of each of the test compounds to the medium, the cells were again incubated for 24 hours. After removing the medium, the cells were washed with phosphate buffer, and 0.5 nM of insulin in phosphate buffer was added to the washed cells, followed by incubation for 40 minutes. Then, 0.5 uCi of 2-deoxy-D-[2,6-3H] glucose per well was again added to the cells, which were let stand for 4 minutes. Then, the cells were washed with phosphate buffer, and cell lysis buffer was added, so as to dissolve the cell membranes. The cell sample was placed into a liquid scintillation cocktail solution. The radioactivity of the sample was counted by a liquid scintillation counter.

Another data set has as its system 3T3-L1 cells. The data set can be described thus: Triglyceride accumulation assay. It is filed as cell-based. The note with it: 4 days with compound, concentration giving 50% of maximum enhancement of rosiglitazone activation. How it is done: 2) Triglyceride accumulation assay (in 3T3-L1 cells)
Undifferentiated adipocyte 3T3-L1 cells were inoculated in a 24-well plate and cultivated in a CO2 incubator at 37° C. To induce differentiation of the undifferentiated adipocytes, the cells were then incubated in a differentiation medium for 48 hours. After adding a certain concentration of each of the test compounds to the differentiation medium, the cells were again incubated for 4 days. Then, the final cell sample was placed into 200 μl of 2-propanol. The amount of triglyceride in the cells were measured by Triglyceride Kit [YEONGDONG PHARMACEUTICAL CO. LTD., Korea] commercially available.

The test system of data set [2] is mice with diabetes (KK/Ay). As to the kind of experiment: Blood glucose- and blood lipid-lowering action in mice with diabetes. It is filed as in vivo. To be noted: male KK/Ay mice, daily oral administration for 5 days; for Blood glucose (ED25): dose reducing blood glucose by 25%; for Triglyceride (ED25): dose reducing triglyceride by 25%. The procedure:
Male mice with diabetes (KK/Ay: 10 weeks old, 5 animals/group) were housed and given free access to water and food. The animals received a daily oral administration of the test compounds for 5 days. After the last dose, a blood sample was drawn via the orbital sinus.
The plasma was analyzed for blood glucose content using the Glucose-E kit (YEONGDONG PHARMACEUTICAL CO. LTD., Korea), and for triglyceride content using the Triglyceride kit (YEONGDONG PHARMACEUTICAL CO. LTD., Korea).

Data set [3] has as its system primary cultured rat hepatocytes.
Procedure: (§1) Hepatocytes isolated from rat were inoculated in a collagen-coated 24 well plate and was incubated in a CO2 incubator at 37° C. for 24 hours. Then, a certain concentration of each of the test compounds was added, and the cells were again incubated for 24 hours. The cells were then incubated in a 0.4% neutral red containing medium for 4 hours and washed once with phosphate buffer. 0.5 ml of a solution of 1% acetic acid-50% ethanol was added to the cells, which were let stand. 200 ul of the cell sample was taken and absorbance was measured at 570 nm. The cytotoxicity assay performed on hepatocytes was measured as 25% toxic concentration (TC25, uM). Then, the safety index, i.e. the TC25 value in the cytotoxicity assay in hepatocyte/the EC50 value in the triglyceride accumulation assay, was calculated.
Data set [4] has the same test system. The data set can be described thus: Cytotoxicity assay in primary cultured rat hepatocytes (neutral red). To be noted: for Safety index (TC25 nM/EC50 nM): TC25 in hepatocyte cytotoxicity assay / EC50 in triglyceride accumulation assay; for Cytotoxicity in hepatocyte (TC25 uM): primary rat hepatocytes, 24 h, neutral red, 25% toxic concentration.
Procedure: as §1

One may read the EC50 as the concentration needed to bring the measured effect to its halfway point. On to “5-(4-[2(N-methyl-N-(6-(4-anilinyl)pyrimidinyl)amino)ethoxy]benzyl)-2,4-thiazolidinedione [Ex. 21]”, for which the EC50 in data set [1] was determined as 12.8 nM. In addition, in the data set on 3T3-L1 cells, the EC50 was 7.5 nM. For the same compound, in data set [2], the “Blood glucose (ED25)” value was 2.6 mg/kg and the “Triglyceride (ED25)” value came out at 6.2 mg/kg. Also, in data set [3], the “Cytotoxicity in hepatocyte (TC25 uM)” value worked out at 81000 nM and the “Safety index (TC25 nM/EC50 nM)” value amounted to 10800.
In the case of “5-(4-[2(N-methyl-N-(6-(4-thiophenoxy)pyrimidinyl)amino)ethoxy]benzyl)-2,4-thiazolidinedione [Ex. 32]”, the EC50 in data set [1] amounted to 5.9 nM. For the same compound, the EC50 in the data set with 3T3-L1 cells turned out to be 3.2 nM. Moreover, in data set [2], the “Blood glucose (ED25)” value was 1.5 mg/kg and the “Triglyceride (ED25)” value was 12.3 mg/kg. Also, in data set [3], the “Cytotoxicity in hepatocyte (TC25 uM)” value came to 89000 nM and the “Safety index (TC25 nM/EC50 nM)” value was determined as 27813.
“5-(4-[2-(N-methyl-N-(2-(4-anilinyl)pyridinyl)amino)ethoxy]benzyl)-2,4-thiazolidinedione [Ex. 38]”: in data set [1], the EC50 worked out at 10.5 nM. Also, in the data set with 3T3-L1 cells, the EC50 is 5.5 nM. In data set [2], the “Blood glucose (ED25)” value is on record as 1.5 mg/kg and the “Triglyceride (ED25)” value is listed as 7.8 mg/kg. Further, in data set [3], the “Cytotoxicity in hepatocyte (TC25 uM)” value worked out at 71000 nM and the “Safety index (TC25 nM/EC50 nM)” value is 12909.
On to “5-(4-[2-(N-methyl-N-(2-(4-anilinyl)pyridinyl)amino)ethoxy]benzylidene)-2,4-thiazolidinedione [Ex. 19]”, for which, in data set [1], the EC50 was 48.2 nM. Further, the EC50 in the data set with 3T3-L1 cells is 20.1 nM. In data set [2], the “Blood glucose (ED25)” value is 3.8 mg/kg and the “Triglyceride (ED25)” value is on record as 15.6 mg/kg. Further, in data set [3], the “Cytotoxicity in hepatocyte (TC25 uM)” value amounted to 81000 nM and the “Safety index (TC25 nM/EC50 nM)” value is given as 4030.
Turning to “5-(4-[2-(N-methyl-N-(2-(4-thiophenoxy)pyridinyl)amino)ethoxy]benzyl)-2,4-thiazolidinedione [Ex. 37]”, in data set [1], the EC50 is 2.8 nM. The EC50 with 3T3-L1 cells stood at 1.2 nM. In addition, in data set [2], the “Blood glucose (ED25)” value amounted to 0.22 mg/kg and the “Triglyceride (ED25)” value is recorded as 1.4 mg/kg. Also, in data set [3], the “Cytotoxicity in hepatocyte (TC25 uM)” value is 95000 nM and the “Safety index (TC25 nM/EC50 nM)” value is recorded as 79167.
Regarding `CN(CCOc1ccc(CC2SC(=O)NC2=O)cc1)c1cc(Oc2ccc(-c3ccccc3)cc2)ncn1` (stereo not drawn) [Ex. 31], the EC50 in data set [1] stood at 20.5 nM. For the same compound, in the data set with 3T3-L1 cells, the EC50 worked out at 12.5 nM. Besides, in data set [2], the “Blood glucose (ED25)” value was found to be 3.2 mg/kg and the “Triglyceride (ED25)” value turned out to be 12.6 mg/kg. Also, in data set [4], the “Safety index (TC25 nM/EC50 nM)” value turned out to be 5840 and the “Cytotoxicity in hepatocyte (TC25 uM)” value is 73000 nM.
For the compound `COc1ccc(Oc2ccnc(N(C)CCOc3ccc(CC4SC(=O)NC4=O)cc3)c2)cc1` (stereo not drawn) [Ex. 35, 5-(4-[2-(N-methyl-N-(2-(4-(4-methoxy)phenoxy)pyridinyl)amino)ethoxy]benzyl)-2,4-thiazolidinedione], the EC50 in data set [1] amounted to 19.3 nM. Also, the EC50 in the data set with 3T3-L1 cells worked out at 9.6 nM. In data set [2], the “Blood glucose (ED25)” value is recorded as 2.5 mg/kg and the “Triglyceride (ED25)” value came out at 9.1 mg/kg. Also, in data set [4], the “Safety index (TC25 nM/EC50 nM)” value stood at 10000 and the “Cytotoxicity in hepatocyte (TC25 uM)” value came out at 96000 nM.
`CN(CCOc1ccc(CC2SC(=O)NC2=O)cc1)c1ccccn1` (stereo not drawn) [Rosiglitazone, reference compound]: in data set [1] (Mus musculus), the EC50 was found to be 75 nM. Moreover, the EC50 in the data set on 3T3-L1 cells (Mus musculus, 96 h) amounted to 47 nM. For the same compound, in data set [2], the “Blood glucose (ED25)” value is on record as 4.1 mg/kg and the “Triglyceride (ED25)” value was “More than 30 mg/kg”. In data set [4], the “Safety index (TC25 nM/EC50 nM)” value was determined as 1489 and the “Cytotoxicity in hepatocyte (TC25 uM)” value was determined as 70000 nM.
